From US12180187B2, “1-phenyl-5-azinylpyrazolyl-3-oxyalkyl acids and their use for controlling unwanted plant growth” (BAYER AKTIENGESELLSCHAFT, priority 2019, dated 2024)

How the values were obtained:
ECHCG = assay: Pre-emergence action against ECHCG, 1280 g/ha; assay type: in vivo, Echinochloa crus-galli; conditions: visual scoring after about 3 weeks vs untreated controls, 100% = plants have died, 0% = like control plants; for pest or weed control at 1280 g/ha: Echinochloa crus-galli, 504 h
Summary of the method: (§1)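 Soil-surface application after sowing, before emergence: WP or EC formulations in water with 0.5% additive, 600 litres per hectare, onto sandy loam pots. Damage rated visually in % relative to untreated plants after roughly 3 weeks in a greenhouse.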

POAAN [1] = assay: Pre-emergence action against POAAN, 1280 g/ha; assay type: in vivo, Poa annua; conditions: visual scoring after about 3 weeks vs untreated controls, 100% = plants have died, 0% = like control plants; for pest or weed control at 1280 g/ha: Poa annua, 504 h
Summary of the method: as §1

SETVI [2] = assay: Pre-emergence action against SETVI, 1280 g/ha; assay type: in vivo, Setaria viridis; conditions: visual scoring after about 3 weeks vs untreated controls, 100% = plants have died, 0% = like control plants; for pest or weed control at 1280 g/ha: Setaria viridis, 504 h
Summary of the method: as §1

AMARE [3] = assay: Pre-emergence action against AMARE, 1280 g/ha; assay type: in vivo, Amaranthus retroflexus; conditions: scored visually after about 3 weeks vs untreated controls (100% = plants have died); for pest or weed control at 1280 g/ha: Amaranthus retroflexus, 504 h
Summary of the method: as §1

MATIN [4] = assay: Pre-emergence action against MATIN, 1280 g/ha; assay type: in vivo, Tripleurospermum inodorum (Matricaria inodora); conditions: scored visually after about 3 weeks vs untreated controls (100% = plants have died); for pest or weed control at 1280 g/ha: Tripleurospermum inodorum, 504 h
Summary of the method: as §1

STEME = assay: Pre-emergence action against STEME, 1280 g/ha; assay type: in vivo, Stellaria media; conditions: scored visually after about 3 weeks vs untreated controls (100% = plants have died); for pest or weed control at 1280 g/ha: Stellaria media, 504 h
Summary of the method: as §1

ALOMY = assay: Pre-emergence action at 320 g/ha against ALOMY; assay type: in vivo, Alopecurus myosuroides; conditions: scored visually after about 3 weeks vs untreated controls (100% = plants have died); for pest or weed control at 320 g/ha: Alopecurus myosuroides, 504 h
Summary of the method: (§2)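 Visual % scoring at about 3 weeks post-treatment against untreated pots (0% = like control, 100% = dead), greenhouse-grown. Compounds applied at 320 g/ha as aqueous WP/EC suspension or emulsion plus 0.5% additive, 600 l/ha water, onto covering soil of freshly sown pots before emergence.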

AVEFA = assay: Pre-emergence action at 320 g/ha against AVEFA; assay type: in vivo; conditions: visual scoring after about 3 weeks vs untreated controls; for pest or weed control at 320 g/ha: Avena fatua, 504 h
Summary of the method: as §2

DIGSA = assay: Pre-emergence action at 320 g/ha against DIGSA; assay type: in vivo, Digitaria sanguinalis; conditions: visual scoring after about 3 weeks vs untreated controls; for pest or weed control at 320 g/ha: Digitaria sanguinalis, 504 h
Summary of the method: as §2

SETVI [5] = assay: Pre-emergence action at 320 g/ha against SETVI; assay type: in vivo, Setaria viridis; conditions: visual scoring after about 3 weeks vs untreated controls; for pest or weed control at 320 g/ha: Setaria viridis, 504 h
Summary of the method: as §2

AMARE [6] = assay: Pre-emergence action at 320 g/ha against AMARE; assay type: in vivo, Amaranthus retroflexus; conditions: visual scoring after about 3 weeks vs untreated controls; for pest or weed control at 320 g/ha: Amaranthus retroflexus, 504 h
Summary of the method: as §2

MATIN [7] = assay: Pre-emergence action at 320 g/ha against MATIN; assay type: in vivo, Tripleurospermum inodorum (Matricaria inodora); conditions: visual scoring after about 3 weeks vs untreated controls; for pest or weed control at 320 g/ha: Tripleurospermum inodorum, 504 h
Summary of the method: as §2

POLCO = assay: Pre-emergence action at 320 g/ha against POLCO; assay type: in vivo, Fallopia convolvulus (Polygonum convolvulus); conditions: visual scoring after about 3 weeks vs untreated controls; for pest or weed control at 320 g/ha: Fallopia convolvulus, 504 h
Summary of the method: as §2

POAAN [8] = assay: Post-emergence action against POAAN, 1.28 kg/ha; assay type: in vivo, Poa annua; conditions: dosage 1280 g/ha, visual rating about 3 weeks after treatment vs untreated controls; for pest or weed control at 1280 g/ha: Poa annua, 504 h
Summary of the method: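 Herbicidal action is estimated by eye after about three weeks under optimum greenhouse conditions, on a 0–100% scale against untreated plants. Compounds are applied post-emergence to one-leaf-stage weeds as aqueous WP or EC preparations containing 0.5% additive, sprayed at 600 L/ha.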

Row | Compound | pest or weed control at 1280 g/ha (ECHCG) [%] | pest or weed control at 1280 g/ha (POAAN [1]) [%] | pest or weed control at 1280 g/ha (SETVI [2]) [%] | pest or weed control at 1280 g/ha (AMARE [3]) [%] | pest or weed control at 1280 g/ha (MATIN [4]) [%] | pest or weed control at 1280 g/ha (STEME) [%] | pest or weed control at 320 g/ha (ALOMY) [%] | pest or weed control at 320 g/ha (AVEFA) [%] | pest or weed control at 320 g/ha (DIGSA) [%] | pest or weed control at 320 g/ha (SETVI [5]) [%] | pest or weed control at 320 g/ha (AMARE [6]) [%] | pest or weed control at 320 g/ha (MATIN [7]) [%] | pest or weed control at 320 g/ha (POLCO) [%] | pest or weed control at 1280 g/ha (POAAN [8]) [%] | Pre-emergence action against ECHCG (ECHCG) [%] | Pre-emergence action against POAAN (POAAN [1]) [%] | Pre-emergence action against SETVI (SETVI [2]) [%] | Pre-emergence action against AMARE (AMARE [3]) [%] | Pre-emergence action against MATIN (MATIN [4]) [%] | Pre-emergence action against STEME (STEME) [%] | further results
1 | COC(=O)COc1nn(-c2ccccc2F)c(-c2cncnc2)c1Br [VI-004, Methyl {[4-bromo-1-(2-fluorophenyl)-5-(pyrimidin-5-yl)-1H-pyrazol-3-yl]oxy}acetate] | 100 | 100 | 100 | 100 | 100 | 100 | 100 | 90 | 100 | 90 | 100 | 100 | 90 | 100 |  |  |  |  |  |  | 
2 | O=C(O)COc1nn(-c2ccccc2F)c(-c2cncnc2)c1Br [VI-007, {[4-Bromo-1-(2-fluorophenyl)-5-(pyrimidin-5-yl)-1H-pyrazol-3-yl]oxy}acetic Acid] | 100 | 100 | 100 | 100 | 100 | 100 | 80 | 90 | 100 | 100 | 100 | 100 | 100 | 100 |  |  |  |  |  |  | 
3 | COC(=O)[C@@H](C)Oc1nn(-c2ccccc2F)c(-c2cncnc2)c1Br [VI-011, Methyl (2R)-2-{[4-bromo-1-(2-fluorophenyl)-5-(pyrimidin-5-yl)-1H-pyrazol-3-yl]oxy}propanoate] | 100 | 100 | 100 | 100 | 90 | 100 | 100 | 80 | 100 | 100 | 100 | 90 | 80 | 100 |  |  |  |  |  |  | 
4 | C[C@@H](Oc1nn(-c2ccccc2F)c(-c2cncnc2)c1Br)C(=O)O [VI-012] |  |  |  |  |  |  |  |  |  |  |  |  |  |  | 90 | 100 | 100 | 100 | 90 | 100 | Pre-emergence action at 320 g/ha against ALOMY in % (ALOMY): 90%; Pre-emergence action against AVEFA in % (AVEFA): 80%; Pre-emergence action against DIGSA in % (DIGSA): 100%; Pre-emergence action against SETVI in % (SETVI [5]): 100%; Pre-emergence action against AMARE in % (AMARE [6]): 100%; Pre-emergence action against MATIN in % (MATIN [7]): 90%; Pre-emergence action against POLCO in % (POLCO): 80%; Post-emergence action against POAAN (POAAN [8]): 100%
5 | COC(=O)C(C)Oc1nn(-c2ccccc2)c(-c2ccc(F)nc2)c1Br (stereo not drawn) [VII-014] |  |  |  |  |  |  |  |  |  |  |  |  |  |  | 90 | 100 | 100 | 100 | 90 | 100 | Pre-emergence action at 320 g/ha against ALOMY in % (ALOMY): 100%; Pre-emergence action against AVEFA in % (AVEFA): 90%; Pre-emergence action against DIGSA in % (DIGSA): 100%; Pre-emergence action against SETVI in % (SETVI [5]): 100%; Pre-emergence action against AMARE in % (AMARE [6]): 90%; Pre-emergence action against POLCO in % (POLCO): 90%; Post-emergence action against POAAN (POAAN [8]): 100%
